{
  "source": "patent US20080161248A1",
  "about": "“Methods and Compositions for Therapeutic Treatment” (priority 2006, published 2008)",
  "key": {"[1]": {"tested_on": "mouse spleen cells, response to LPS", "experiment": "In vitro LPS assay on spleen cells", "type": "cell-based", "conditions": "high ([…]10^6 cells/well) and low (8×10^5 cells/well) cell concentration", "description": "Animals: 8-9 weeks-old Lewis and Brown Norway male rats were obtained from Charles River Laboratories. General procedures for animal care and housing was in accordance with the National Research Council (NRC) Guide for the Care and Use of Laboratory Animals (1996) and the Animal Welfare Standards incorporated in 9 CFR Part 3, 1991.\nSpleens were collected for use in in vitro Con A and LPS assays.\nFIGS. 10 and 11 show the effect of quercetin and tacrolimus on response of mouse spleen cells to LPS at a high (1.6×10^6 cells/well) and low (8×10^5 cells/well) cell concentration, respectively."}, "[2]": {"conditions": "liver transplantation, U.S. study, 12-month post-transplant; cited from earlier work"}, "[3]": {"conditions": "cited from earlier work"}},
  "note": "Where two headings read alike, the source gives them in different places.",
  "data": [
    {"smiles": "C=CC[C@@H]1/C=C(\\C)C[C@H](C)C[C@H](OC)C2O[C@@](O)(C(=O)C(=O)N3CCCC[C@H]3C(=O)O[C@H](/C(C)=C/[C@@H]3CC[C@@H](O)[C@H](OC)C3)[C@H](C)[C@@H](O)CC1=O)[C@H](C)C[C@@H]2OC", "note": "(relative stereo) [Prograf, [3S-[3R[E(1S*,3S*,4S*)], 4S*,5R*,8S*,9E,12R*,14R*,15S*,16R*,18S*,19S*,26aR*]]-,6,8,11,12,13,14,15,16,17,18,19,24,25,26,26a-hexadecahydro-5,19-dihydroxy-3-[2-(4-hydroxy-3-methoxycyclohexyl)-1-methylethenyl]-14,16-dimethoxy-4,10,12,18-tetramethyl-8-(2-propenyl)-15,19-epoxy-3H-pyrido[2,1-c][1,4]oxaazacyclotricosine-1,7,20,21 (4H,23H)-tetrone, monohydrate]", "values": [
      {"measurement": "effect on response of spleen cells to LPS (proliferation)", "setting": "[1]", "result": "inhibited LPS-induced proliferation in a dose dependent manner"},
      {"measurement": "Adverse event: Abdominal Pain", "setting": "[2]", "result": 59, "unit": "%"},
      {"measurement": "Adverse event: Anemia", "setting": "[2]", "result": 47, "unit": "%"},
      {"measurement": "Adverse event: Anorexia", "setting": "[2]", "result": 34, "unit": "%"},
      {"measurement": "Adverse event: Ascites", "setting": "[2]", "result": 27, "unit": "%"},
      {"measurement": "Adverse event: Asthenia", "setting": "[2]", "result": 52, "unit": "%"},
      {"measurement": "Adverse event: Atelectasis", "setting": "[2]", "result": 28, "unit": "%"},
      {"measurement": "Adverse event: BUN Increased", "setting": "[2]", "result": 30, "unit": "%"},
      {"measurement": "Adverse event: Back Pain", "setting": "[2]", "result": 30, "unit": "%"},
      {"measurement": "Adverse event: Constipation", "setting": "[2]", "result": 24, "unit": "%"},
      {"measurement": "Adverse event: Creatinine Increased", "setting": "[2]", "result": 39, "unit": "%"},
      {"measurement": "Adverse event: Diarrhea", "setting": "[2]", "result": 72, "unit": "%"},
      {"measurement": "Adverse event: Dyspnea", "setting": "[2]", "result": 29, "unit": "%"},
      {"measurement": "Adverse event: Fever", "setting": "[2]", "result": 48, "unit": "%"},
      {"measurement": "Adverse event: Headache", "setting": "[2]", "result": 64, "unit": "%"},
      {"measurement": "Adverse event: Hyperglycemia", "setting": "[2]", "result": 47, "unit": "%"},
      {"measurement": "Adverse event: Hyperkalemia", "setting": "[2]", "result": 45, "unit": "%"},
      {"measurement": "Adverse event: Hypertension", "setting": "[2]", "result": 47, "unit": "%"},
      {"measurement": "Adverse event: Hypokalemia", "setting": "[2]", "result": 29, "unit": "%"},
      {"measurement": "Adverse event: Hypomagnesemia", "setting": "[2]", "result": 48, "unit": "%"},
      {"measurement": "Adverse event: Insomnia", "setting": "[2]", "result": 64, "unit": "%"},
      {"measurement": "Adverse event: Kidney Function Abnormal", "setting": "[2]", "result": 40, "unit": "%"},
      {"measurement": "Adverse event: LFT Abnormal", "setting": "[2]", "result": 36, "unit": "%"},
      {"measurement": "Adverse event: Leukocytosis", "setting": "[2]", "result": 32, "unit": "%"},
      {"measurement": "Adverse event: Nausea", "setting": "[2]", "result": 46, "unit": "%"},
      {"measurement": "Adverse event: Oliguria", "setting": "[2]", "result": 18, "unit": "%"},
      {"measurement": "Adverse event: Pain", "setting": "[2]", "result": 63, "unit": "%"},
      {"measurement": "Adverse event: Paresthesia", "setting": "[2]", "result": 40, "unit": "%"},
      {"measurement": "Adverse event: Peripheral Edema", "setting": "[2]", "result": 26, "unit": "%"},
      {"measurement": "Adverse event: Pleural Effusion", "setting": "[2]", "result": 30, "unit": "%"},
      {"measurement": "Adverse event: Pruritus", "setting": "[2]", "result": 36, "unit": "%"},
      {"measurement": "Adverse event: Rash", "setting": "[2]", "result": 24, "unit": "%"},
      {"measurement": "Adverse event: Thrombocytopenia", "setting": "[2]", "result": 24, "unit": "%"},
      {"measurement": "Adverse event: Tremor", "setting": "[2]", "result": 56, "unit": "%"},
      {"measurement": "Adverse event: Urinary Tract Infection", "setting": "[2]", "result": 16, "unit": "%"},
      {"measurement": "Adverse event: Vomiting", "setting": "[2]", "result": 27, "unit": "%"},
      {"measurement": "patients with trough concentrations within the pre-defined target range", "setting": "[3]; European heart study, target range 5-15 ng/mL", "result": "74-86%"},
      {"measurement": "Adverse event: Tremor", "setting": "[3]; heart transplant patients, European trial", "result": 15, "unit": "%"}
    ]}
  ]
}
